Among the data in patent publication US20140107109A1, “AMINO-DIHYDROTHIAZINE AND AMINO-DIOXIDO DIHYDROTHIAZINE COMPOUNDS AS BETA-SECRETASE ANTAGONISTS AND METHODS OF USE” (Amgen Inc., priority 2012, published 2014) are IC50 values, retold here.

Read-outs that look alike come from different tables or passages of the source.

Test [1] concerns the target Beta Secretase enzyme (BACE1) (Homo sapiens, UniProt P56817). The test is described as follows: In vitro enzymatic BACE FRET assay. It is filed as biochemical. The conditions noted are these: read-out: BACE1 FRET assay IC50. The method in brief: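 Readout: dequenched fluorescence (ex 488 nm/[…]) after neutralizing with Tris buffer. Reactions, begun by adding 50 nM quenched peptide substrate spanning the BACE cleavage site, were incubated one hour at pH 4.2 in 0.05 M acetate with 100 uM genapol and 10% final DMSO.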

Test [2] relates to Aβ40 in conditioned medium of cells stably expressing Amyloid Precursor Protein (APP). The test is described as follows: In vitro BACE cell-based assay (HEK cell assay), Aβ40 sandwich ELISA. The conditions noted are these: Homo sapiens, HEK293. The method in brief: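 Aβ40 in conditioned medium was quantified by time-resolved fluorescence sandwich ELISA (pAb40 capture 3 h at 4 °C, biotin-6E10 detection 2 h at 4 °C) after 24 h compound exposure of APP-expressing cells. Doses spanned 10 points from 100 μM or 10 μM top, 0.1% DMSO; IC50 was derived from percent of control.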

The next test concerns the target T1, Cathepsin D (Cat D) (Homo sapiens, UniProt P07339).
T1 construct: Recombinant Cat D was expressed in CHO cells; made in house; host or cells: CHO cells
The test is described as follows: In vitro enzymatic Cathepsin D (Cat D) FRET assay. It is filed as biochemical. The conditions noted are these: read-out: CatD IC50. The essentials:
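FRET read-out: a fluorophore/quencher-labelled peptide substrate is cleaved by 9 nM Cat D (recombinant, CHO-expressed) following a one-hour preincubation with inhibitor dilutions in DMSO. Tris buffer added to neutralize pH ends the reaction before fluorescence measurement.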

T1 sequence (P07339 65-412, species assumed): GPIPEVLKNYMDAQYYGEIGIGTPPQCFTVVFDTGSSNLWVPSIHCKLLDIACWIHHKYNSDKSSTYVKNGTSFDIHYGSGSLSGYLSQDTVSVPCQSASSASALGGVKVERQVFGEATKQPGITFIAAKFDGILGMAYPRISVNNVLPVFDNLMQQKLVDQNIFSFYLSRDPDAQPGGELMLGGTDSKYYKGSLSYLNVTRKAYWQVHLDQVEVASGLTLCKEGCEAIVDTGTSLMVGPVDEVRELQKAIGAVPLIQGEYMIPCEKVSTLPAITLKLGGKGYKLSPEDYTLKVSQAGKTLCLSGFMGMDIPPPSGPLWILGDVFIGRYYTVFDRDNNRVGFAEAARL
Sequence of Beta Secretase enzyme (BACE1) (P56817 46-501): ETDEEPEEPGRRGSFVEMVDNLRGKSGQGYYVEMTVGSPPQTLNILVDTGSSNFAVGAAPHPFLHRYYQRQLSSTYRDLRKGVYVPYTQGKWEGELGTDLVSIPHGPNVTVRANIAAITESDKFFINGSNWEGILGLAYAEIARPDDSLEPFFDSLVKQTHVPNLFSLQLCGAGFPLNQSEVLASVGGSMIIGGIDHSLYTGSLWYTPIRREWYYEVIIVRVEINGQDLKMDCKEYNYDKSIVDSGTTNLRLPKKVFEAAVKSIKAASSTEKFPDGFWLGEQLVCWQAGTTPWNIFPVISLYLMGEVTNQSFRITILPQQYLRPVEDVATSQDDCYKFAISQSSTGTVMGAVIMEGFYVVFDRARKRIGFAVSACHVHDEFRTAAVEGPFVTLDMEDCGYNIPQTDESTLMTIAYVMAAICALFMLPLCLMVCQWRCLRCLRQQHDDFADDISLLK

Turning to `CC1(C)C(N)=N[C@](C)(c2cc(NC(=O)c3ccc(Cl)cc3F)ccc2F)CS1(=O)=O` [Example 213, N-(3-((3R)-5-amino-3,6,6-trimethyl-1,1-dioxido-3,6-dihydro-2H-1,4-thiazin-3-yl)-4-fluorophenyl)-4-chloro-2-fluorobenzamide], the IC50 in test [1] (average IC50, enzyme assay) stood at 0.0123 µM; in test [2] (average IC50, cell assay), 29 nM; on Cathepsin D (Cat D) it was 442 µM.

`CC#CCOc1cnc(C(=O)Nc2ccc(F)c([C@]3(C)CS(=O)(=O)C(C)(C)C(N)=N3)c2)cn1` [Example 26, N-(3-((3R)-5-amino-3,6,6-trimethyl-1,1-dioxido-3,6-dihydro-2H-1,4-thiazin-3-yl)-4-fluorophenyl)-5-(2-butyn-1-yloxy)-2-pyrazinecarboxamide]: the concentration for half-maximal inhibition (IC50) in test [1] was 0.0004 µM; in test [2] (Aβ40, 24 h incubation) it was 0.05 nM; on Cathepsin D (Cat D) it was 475 µM.

Take `C[C@]1(F)C(N)=N[C@](C)(c2cc(NC(=O)c3cnc(C(F)(F)F)cn3)ccc2F)CS1(=O)=O` [Example 323, N-(3-((3R,6R)-5-amino-6-fluoro-3,6-dimethyl-1,1-dioxido-3,6-dihydro-2H-1,4-thiazin-3-yl)-4-fluorophenyl)-5-(trifluoromethyl)-2-pyrazinecarboxamide]: the IC50 came out at 0.00386 µM in test [1] (average IC50, enzyme assay); 288 nM in test [2] (average IC50, HEK cell assay); 931 µM on Cathepsin D (Cat D).

Regarding `C[C@@]1(c2cc(Br)cnc2F)CS(=O)(=O)C2(CC2)C(N)=N1` [Example 455, (6R)-6-(5-bromo-2-fluoro-3-pyridinyl)-6-methyl-4-thia-7-azaspiro[2.5]oct-7-en-8-amine 4,4-dioxide], the IC50 in test [1] (average IC50) was 12.5 µM; in test [2] (average IC50, HEK cells), more than 15600 nM; on Cathepsin D (Cat D), 100 µM.

Take `CC1(C)C(N)=N[C@](C)(c2cc(Nc3nccc4cc(C#N)cnc34)cnc2F)CS1(=O)=O` [Example 385, 8-((5-((3R)-5-amino-3,6,6-trimethyl-1,1-dioxido-3,6-dihydro-2H-1,4-thiazin-3-yl)-6-fluoro-3-pyridinyl)amino)-1,7-naphthyridine-3-carbonitrile]: the results for the IC50 (in test [1]; in test [2]; at Cathepsin D (Cat D)) were 0.00262 µM, 3.7 nM and 67.6 µM, respectively.

Take `Cc1cc(Cl)cnc1C(=O)Nc1ccc(F)c([C@@]2(C)N=C(N)C3(CC3)S(=O)(=O)[C@@H]2F)c1` [Example 204, N-(3-((5S,6R)-8-amino-5-fluoro-6-methyl-4,4-dioxido-4-thia-7-azaspiro[2.5]oct-7-en-6-yl)-4-fluorophenyl)-5-chloro-3-methylpicolinamide]: the IC50 turned out to be 0.00087 µM in test [1], 2.7 nM in test [2] and 182 µM on Cathepsin D (Cat D).

As for `COc1cnc(C(=O)Nc2ccc(F)c([C@]3(CF)CS(=O)(=O)C(C)(C)C(N)=N3)c2)c(C)c1` [Example 377, N-(3-((3S)-5-amino-3-(fluoromethyl)-6,6-dimethyl-1,1-dioxido-3,6-dihydro-2H-1,4-thiazin-3-yl)-4-fluorophenyl)-5-methoxy-3-methyl-2-pyridinecarboxamide], the values for the IC50 (in test [1]; in test [2]; on Cathepsin D (Cat D)) were 0.003 µM, 9.8 nM and 335 µM, respectively.

As for `CC1(C)C(N)=N[C@](C)(c2cc(Oc3ncc(F)c(C(F)(F)F)c3F)ccc2F)CS1(=O)=O` [Example 262, (5R)-5-(5-((3,5-difluoro-4-(trifluoromethyl)-2-pyridinyl)oxy)-2-fluorophenyl)-2,2,5-trimethyl-5,6-dihydro-2H-1,4-thiazin-3-amine 1,1-dioxide], the IC50 in test [1] (average IC50, enzyme assay) is 15.5 µM; in test [2] (average IC50, cell assay), more than 15600 nM; at Cathepsin D (Cat D) it was 68.1 µM.

Regarding `Cc1c(C(=O)Nc2ccc(F)c([C@]3(CF)CS(=O)(=O)C(C)(C)C(N)=N3)c2)nc2ccc(C#N)cn12` [Example 390, N-(3-((3S)-5-amino-3-(fluoromethyl)-6,6-dimethyl-1,1-dioxido-3,6-dihydro-2H-1,4-thiazin-3-yl)-4-fluorophenyl)-6-cyano-3-methylimidazo[1,2-a]pyridine-2-carboxamide], the IC50 in test [1] came to 0.00485 µM; in test [2], 23.6 nM; at Cathepsin D (Cat D) it was 379 µM.

Turning to `CC1(C)C(N)=N[C@](C)(c2cc(NCc3c(Cl)cnn3CC(F)(F)F)ccc2F)CS1(=O)=O` [Example 109, (R)-5-amino-3-(5-(((4-chloro-1-(2,2,2-trifluoroethyl)-1H-pyrazol-5-yl)methyl)amino)-2-fluorophenyl)-3,6,6-trimethyl-3,6-dihydro-2H-1,4-thiazine 1,1-dioxide], the IC50 in test [1] (average IC50, enzyme assay) is 0.208 µM; in test [2] (average IC50, cell assay) it was 360 nM; on Cathepsin D (Cat D), 12.2 µM.

In the case of `Cc1ccnc(Oc2ccc(F)c([C@]3(C)CS(=O)(=O)C(C)(C)C(N)=N3)c2)c1C#N` [Example 310, 2-(3-((3R)-5-amino-3,6,6-trimethyl-1,1-dioxido-3,6-dihydro-2H-1,4-thiazin-3-yl)-4-fluorophenoxy)-4-methyl-3-pyridinecarbonitrile], the IC50 in test [1] (average IC50, enzyme assay) was determined as 1.34 µM; in test [2] (average IC50, HEK cell assay) it was 931 nM; at Cathepsin D (Cat D), 444 µM.

As for `CC1(C)C(N)=N[C@](C)(c2cc(Br)ccc2F)C2(CC2)S1(=O)=O` [Example 187], the half-maximal inhibitory concentration (IC50) in test [1] (average IC50) is 30.7 µM; in test [2] (average IC50, HEK cells) it was more than 15600 nM; on Cathepsin D (Cat D) it was more than 400 µM.

Take `COc1cnc2c(Oc3ccc(F)c([C@]4(C)CS(=O)(=O)C(C)(C)C(N)=N4)c3)nccc2n1` [Example 303, (5R)-5-(2-fluoro-5-((2-methoxypyrido[3,4-b]pyrazin-5-yl)oxy)phenyl)-2,2,5-trimethyl-5,6-dihydro-2H-1,4-thiazin-3-amine 1,1-dioxide]: the IC50 was 1.22 µM in test [1] (average IC50, enzyme assay); 2540 nM in test [2] (average IC50, HEK cell assay); 1000 µM at Cathepsin D (Cat D).

Consider `CC1(C)C(N)=N[C@](C)(c2cc(Oc3cc(F)cc(C(F)(F)F)c3)ccc2F)CS1(=O)=O` [Example 98, (R)-5-amino-3-(2-fluoro-5-(3-fluoro-5-(trifluoromethyl)phenoxy)phenyl)-3,6,6-trimethyl-3,6-dihydro-2H-1,4-thiazine 1,1-dioxide], for which the IC50 in test [1] came to 0.135 µM; in test [2] (Aβ40, 24 h incubation) it was 5040 nM; on Cathepsin D (Cat D), 56.3 µM.

For the compound `Cc1c(C(=O)Nc2ccc(F)c([C@]3(CF)CS(=O)(=O)C(C)(C)C(N)=N3)c2)nc2ccc(F)cn12` [Example 393, N-(3-((3S)-5-amino-3-(fluoromethyl)-6,6-dimethyl-1,1-dioxido-3,6-dihydro-2H-1,4-thiazin-3-yl)-4-fluorophenyl)-6-fluoro-3-methylimidazo[1,2-a]pyridine-2-carboxamide], the results for the IC50 (in test [1]; in test [2]; on Cathepsin D (Cat D)) were 0.0117 µM, 60.5 nM and 103 µM, respectively.

`CC1(C)C(N)=N[C@](C)(c2cc(NC(=O)c3ncc(Cl)cc3F)ccc2F)C(F)S1(=O)=O` (stereo partly drawn) [Example 329, N-(3-((3R)-5-amino-2-fluoro-3,6,6-trimethyl-1,1-dioxido-3,6-dihydro-2H-1,4-thiazin-3-yl)-4-fluorophenyl)-5-chloro-3-fluoro-2-pyridinecarboxamide]: the IC50 is 0.00047 µM in test [1] (average IC50, enzyme assay); 5.8 nM in test [2] (average IC50, HEK cell assay); more than 400 µM on Cathepsin D (Cat D).

Consider `Cc1nc2c(Oc3ccc(F)c([C@]4(C)CS(=O)(=O)C(C)(C)C(N)=N4)c3)nccc2s1` [Example 302, (5R)-5-(2-fluoro-5-((2-methyl[1,3]thiazolo[4,5-c]pyridin-4-yl)oxy)phenyl)-2,2,5-trimethyl-5,6-dihydro-2H-1,4-thiazin-3-amine 1,1-dioxide], for which the IC50 in test [1] (average IC50, enzyme assay) came to 3.49 µM; in test [2] (average IC50, HEK cell assay) it was 2870 nM; at Cathepsin D (Cat D), 241 µM.

With `Cc1cc(OC(F)F)cnc1C(=O)Nc1cnc(F)c([C@]2(C)CS(=O)(=O)C3(CCC3)C(N)=N2)c1` [Example 358, N-(5-((7R)-9-amino-7-methyl-5,5-dioxido-5-thia-8-azaspiro[3.5]non-8-en-7-yl)-6-fluoro-3-pyridinyl)-5-(difluoromethoxy)-3-methyl-2-pyridinecarboxamide], the IC50 in test [1] (average IC50, enzyme assay) came to 0.00642 µM; in test [2] (average IC50, HEK cell assay), 9.5 nM; at Cathepsin D (Cat D), 139 µM.

As for `CC1(C)C(N)=N[C@](CF)(c2cc(Nc3ncc(F)c4cc(OCC5CC5)cnc34)ccc2F)CS1(=O)=O` [Example 431, N-(3-((3S)-5-amino-3-(fluoromethyl)-6,6-dimethyl-1,1-dioxido-3,6-dihydro-2H-1,4-thiazin-3-yl)-4-fluorophenyl)-3-(cyclopropylmethoxy)-5-fluoro-1,7-naphthyridin-8-amine], the IC50 in test [1] (average IC50, enzyme assay) was 0.0012 µM; in test [2] (average IC50, cell assay), 100 nM; at Cathepsin D (Cat D) it was 476 µM.

As for `CC1(C)C(N)=N[C@](C)(c2cc(Nc3ncc(C#C[Si](C)(C)C)c4cc(Cl)cnc34)ccc2F)CS1(=O)=O` [Example 189, (R)-5-amino-3-(5-((3-chloro-5-((trimethylsilyl)ethynyl)-1,7-naphthyridin-8-yl)amino)-2-fluorophenyl)-3,6,6-trimethyl-3,6-dihydro-2H-1,4-thiazine 1,1-dioxide], the IC50 is 0.0068 µM in test [1] (average IC50, enzyme assay); 231 nM in test [2] (average IC50, cell assay); more than 4.94 µM on Cathepsin D (Cat D).
